{
  "source": "the supplement of paper PMC10733146",
  "test_in_all_cases": "viability relative to DMSO control (fraction); higher = less drug effect (more viable cells)",
  "details_in_all_cases": "48 h",
  "key": {"[1]": {"test_system": "primary ALL patient cells (S048)", "in_short": "(§1)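 Using 384-well plates with compounds already plated at five concentrations, one well per concentration, 4 × 10^4 primary mononuclear tumour cells were added per well. Cells were Ficoll-isolated from blood or bone marrow or came from processed lymph node, fresh or cryopreserved. They were kept for 48 h at 37 °C and 5% CO2 in RPMI-1640 supplemented with penicillin/streptomycin, L-glutamine and human serum, and viability was read as CellTiter-Glo luminescence relative to the median of 16 inner DMSO wells.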"}, "[2]": {"test_system": "primary AML patient cells (S002)", "in_short": "as §1"}, "[3]": {"test_system": "primary AML patient cells (S006)", "in_short": "as §1"}, "[4]": {"test_system": "primary AML patient cells (S009)", "in_short": "as §1"}, "[5]": {"test_system": "primary AML patient cells (S012)", "in_short": "as §1"}, "[6]": {"test_system": "primary AML patient cells (S017)", "in_short": "as §1"}, "[7]": {"test_system": "primary AML patient cells (S021)", "in_short": "as §1"}, "[8]": {"test_system": "primary AML patient cells (S025)", "in_short": "as §1"}, "[9]": {"test_system": "primary AML patient cells (S055)", "in_short": "as §1"}, "[10]": {"test_system": "primary AML patient cells (S056)", "in_short": "as §1"}, "[11]": {"test_system": "primary AML patient cells (S072)", "in_short": "as §1"}, "[12]": {"test_system": "primary AML patient cells (S079)", "in_short": "as §1"}, "[13]": {"test_system": "primary AML patient cells (S081)", "in_short": "as §1"}, "[14]": {"test_system": "primary BL patient cells (S005)", "in_short": "as §1"}, "[15]": {"test_system": "primary CLL patient cells (S043)", "in_short": "as §1"}, "[16]": {"test_system": "primary FL patient cells (S022)", "in_short": "as §1"}, "[17]": {"test_system": "primary MCL patient cells (S053)", "in_short": "as §1"}, "[18]": {"test_system": "primary MCL patient cells (S063)", "in_short": "as §1"}, "[19]": {"test_system": "primary MCL patient cells (S068)", "in_short": "as §1"}, "[20]": {"test_system": "primary T-PLL patient cells (S008)", "in_short": "as §1"}},
  "data": [
    {"compound": "Oc1ccc(/C=C/c2cc(O)cc(O)c2)cc1", "note": "[Resveratrol]", "values": [
      {"measurement": "viability", "setting": "[1]; 0.024 µM", "value": 0.621},
      {"measurement": "viability", "setting": "[1]; 0.12 µM", "value": 0.574},
      {"measurement": "viability", "setting": "[1]; 0.6 µM", "value": 0.479},
      {"measurement": "viability", "setting": "[1]; 3 µM", "value": 0.637},
      {"measurement": "viability", "setting": "[1]; 15 µM", "value": 0.681},
      {"measurement": "viability", "setting": "[2]; 0.024 µM", "value": 0.873},
      {"measurement": "viability", "setting": "[2]; 0.12 µM", "value": 0.932},
      {"measurement": "viability", "setting": "[2]; 0.6 µM", "value": 0.894},
      {"measurement": "viability", "setting": "[2]; 3 µM", "value": 0.796},
      {"measurement": "viability", "setting": "[2]; 15 µM", "value": 0.604},
      {"measurement": "viability", "setting": "[3]; 0.024 µM", "value": 0.862},
      {"measurement": "viability", "setting": "[3]; 0.12 µM", "value": 0.866},
      {"measurement": "viability", "setting": "[3]; 0.6 µM", "value": 0.845},
      {"measurement": "viability", "setting": "[3]; 3 µM", "value": 0.872},
      {"measurement": "viability", "setting": "[3]; 15 µM", "value": 0.804},
      {"measurement": "viability", "setting": "[4]; 0.024 µM", "value": 0.782},
      {"measurement": "viability", "setting": "[4]; 0.12 µM", "value": 0.815},
      {"measurement": "viability", "setting": "[4]; 0.6 µM", "value": 0.815},
      {"measurement": "viability", "setting": "[4]; 3 µM", "value": 0.789},
      {"measurement": "viability", "setting": "[4]; 15 µM", "value": 0.683},
      {"measurement": "viability", "setting": "[5]; 0.024 µM", "value": 0.981},
      {"measurement": "viability", "setting": "[5]; 0.12 µM", "value": 1.02},
      {"measurement": "viability", "setting": "[5]; 0.6 µM", "value": 0.972},
      {"measurement": "viability", "setting": "[5]; 3 µM", "value": 0.957},
      {"measurement": "viability", "setting": "[5]; 15 µM", "value": 0.986},
      {"measurement": "viability", "setting": "[6]; 0.024 µM", "value": 0.89},
      {"measurement": "viability", "setting": "[6]; 0.12 µM", "value": 0.933},
      {"measurement": "viability", "setting": "[6]; 0.6 µM", "value": 0.92},
      {"measurement": "viability", "setting": "[6]; 3 µM", "value": 0.883},
      {"measurement": "viability", "setting": "[6]; 15 µM", "value": 0.902},
      {"measurement": "viability", "setting": "[7]; 0.024 µM", "value": 0.84},
      {"measurement": "viability", "setting": "[7]; 0.12 µM", "value": 0.845},
      {"measurement": "viability", "setting": "[7]; 0.6 µM", "value": 0.772},
      {"measurement": "viability", "setting": "[7]; 3 µM", "value": 0.693},
      {"measurement": "viability", "setting": "[7]; 15 µM", "value": 0.55},
      {"measurement": "viability", "setting": "[8]; 0.024 µM", "value": 0.933},
      {"measurement": "viability", "setting": "[8]; 0.12 µM", "value": 0.921},
      {"measurement": "viability", "setting": "[8]; 0.6 µM", "value": 0.883},
      {"measurement": "viability", "setting": "[8]; 3 µM", "value": 0.891},
      {"measurement": "viability", "setting": "[8]; 15 µM", "value": 0.758},
      {"measurement": "viability", "setting": "[9]; 0.024 µM", "value": 0.867},
      {"measurement": "viability", "setting": "[9]; 0.12 µM", "value": 0.931},
      {"measurement": "viability", "setting": "[9]; 0.6 µM", "value": 0.888},
      {"measurement": "viability", "setting": "[9]; 3 µM", "value": 0.83},
      {"measurement": "viability", "setting": "[9]; 15 µM", "value": 0.851},
      {"measurement": "viability", "setting": "[10]; 0.024 µM", "value": 0.714},
      {"measurement": "viability", "setting": "[10]; 0.12 µM", "value": 0.966},
      {"measurement": "viability", "setting": "[10]; 0.6 µM", "value": 0.645},
      {"measurement": "viability", "setting": "[10]; 3 µM", "value": 0.596},
      {"measurement": "viability", "setting": "[10]; 15 µM", "value": 0.466},
      {"measurement": "viability", "setting": "[11]; 0.024 µM", "value": 1.07},
      {"measurement": "viability", "setting": "[11]; 0.12 µM", "value": 0.797},
      {"measurement": "viability", "setting": "[11]; 0.6 µM", "value": 0.816},
      {"measurement": "viability", "setting": "[11]; 3 µM", "value": 0.798},
      {"measurement": "viability", "setting": "[11]; 15 µM", "value": 0.687},
      {"measurement": "viability", "setting": "[12]; 0.024 µM", "value": 0.838},
      {"measurement": "viability", "setting": "[12]; 0.12 µM", "value": 0.767},
      {"measurement": "viability", "setting": "[12]; 0.6 µM", "value": 0.792},
      {"measurement": "viability", "setting": "[12]; 3 µM", "value": 0.718},
      {"measurement": "viability", "setting": "[12]; 15 µM", "value": 0.736},
      {"measurement": "viability", "setting": "[13]; 0.024 µM", "value": 0.814},
      {"measurement": "viability", "setting": "[13]; 0.12 µM", "value": 0.846},
      {"measurement": "viability", "setting": "[13]; 0.6 µM", "value": 0.806},
      {"measurement": "viability", "setting": "[13]; 3 µM", "value": 0.762},
      {"measurement": "viability", "setting": "[13]; 15 µM", "value": 0.794},
      {"measurement": "viability", "setting": "[14]; 0.024 µM", "value": 0.942},
      {"measurement": "viability", "setting": "[14]; 0.12 µM", "value": 0.954},
      {"measurement": "viability", "setting": "[14]; 0.6 µM", "value": 0.921},
      {"measurement": "viability", "setting": "[14]; 3 µM", "value": 0.9},
      {"measurement": "viability", "setting": "[14]; 15 µM", "value": 0.828},
      {"measurement": "viability", "setting": "[15]; 0.024 µM", "value": 0.825},
      {"measurement": "viability", "setting": "[15]; 0.12 µM", "value": 0.864},
      {"measurement": "viability", "setting": "[15]; 0.6 µM", "value": 0.821},
      {"measurement": "viability", "setting": "[15]; 3 µM", "value": 0.799},
      {"measurement": "viability", "setting": "[15]; 15 µM", "value": 0.711},
      {"measurement": "viability", "setting": "[16]; 0.024 µM", "value": 0.832},
      {"measurement": "viability", "setting": "[16]; 0.12 µM", "value": 0.823},
      {"measurement": "viability", "setting": "[16]; 0.6 µM", "value": 0.784},
      {"measurement": "viability", "setting": "[16]; 3 µM", "value": 0.847},
      {"measurement": "viability", "setting": "[16]; 15 µM", "value": 0.811},
      {"measurement": "viability", "setting": "[17]; 0.024 µM", "value": 0.75},
      {"measurement": "viability", "setting": "[17]; 0.12 µM", "value": 0.671},
      {"measurement": "viability", "setting": "[17]; 0.6 µM", "value": 0.595},
      {"measurement": "viability", "setting": "[17]; 3 µM", "value": 0.686},
      {"measurement": "viability", "setting": "[17]; 15 µM", "value": 0.772},
      {"measurement": "viability", "setting": "[18]; 0.024 µM", "value": 0.862},
      {"measurement": "viability", "setting": "[18]; 0.12 µM", "value": 0.858},
      {"measurement": "viability", "setting": "[18]; 0.6 µM", "value": 0.863},
      {"measurement": "viability", "setting": "[18]; 3 µM", "value": 0.854},
      {"measurement": "viability", "setting": "[18]; 15 µM", "value": 0.825},
      {"measurement": "viability", "setting": "[19]; 0.024 µM", "value": 0.614},
      {"measurement": "viability", "setting": "[19]; 0.12 µM", "value": 0.63},
      {"measurement": "viability", "setting": "[19]; 0.6 µM", "value": 0.639},
      {"measurement": "viability", "setting": "[19]; 3 µM", "value": 0.7},
      {"measurement": "viability", "setting": "[19]; 15 µM", "value": 1.16},
      {"measurement": "viability", "setting": "[20]; 0.024 µM", "value": 1},
      {"measurement": "viability", "setting": "[20]; 0.12 µM", "value": 1.02},
      {"measurement": "viability", "setting": "[20]; 0.6 µM", "value": 0.915},
      {"measurement": "viability", "setting": "[20]; 3 µM", "value": 0.966},
      {"measurement": "viability", "setting": "[20]; 15 µM", "value": 0.897}
    ]}
  ]
}
